Reference: a melting point compilation (Tetko et al.; mined from patent text by program, amines drawn as free bases though some values may be those of a salt)

With `CCOC(=O)C1CCc2ccc3[nH]c(C(F)(F)F)nc3c2O1` (stereo not drawn) the melting point was 134 °C. In the case of `COc1cc2cc(C=NO)c(Cl)nc2cc1OC`, the melting point is reported as 237 to 238 °C. For `COc1ccc(S(=O)(=O)N2C(=O)[C@@](c3ccccc3OC)(N3C[C@H](OC(=O)N(C)C)C[C@H]3C(=O)N(C)C)c3cc(Cl)ccc32)c(OC)c1`, the melting point was 138 to 140 °C. Molecule `COc1ccc(Cl)cc1C(C)(C)O` has a melting point of 56 °C. Molecule `Cc1ccc(Nc2c(F)cccc2Cl)c(CC(=O)O)c1` has a melting point of 152 to 154 °C. For `CCOC(=O)C(C)(C)CCCCOc1cc(C)c(N)c(C)c1`, the melting point was 32 to 34 °C. `COc1c(C)c2c(c(C)c1NC(=O)CC(C)(C)C)C(c1ccc(C(C)C)cc1)CO2` (stereo not drawn) gave a melting point of 162 to 163 °C. Work on `CN1C(=O)N(c2c(Cl)cccc2Cl)Cc2cnc(NCc3ccc(CN)cc3)nc21` yielded a melting point of 151 to 152 °C. Work on `C=C(C)C(=O)N(SC1CCCCC1)c1ccccc1` yielded a melting point of 56 to 56.5 °C. Molecule `COC(=O)c1ccc(-c2n[nH]c3c2Cc2ccccc2-3)cc1` has a melting point of 224 to 226 °C. Work on `Nc1ccc(S(=O)(=O)Nc2cc(N)cc(N)c2)cc1` yielded a melting point of 188 to 190 °C. `Cc1ccc(CCOc2cccc3c(Cl)ccnc23)cc1` showed a melting point of 74 to 75 °C. `C=Cc1cc(O[Si](C)(C)C(C)(C)C)cc2nc(-c3ccc(O[Si](C)(C)C(C)(C)C)c(F)c3)oc12` showed a melting point of 93 to 95 °C. With `Cc1nccn1-c1nc(-c2ccc(Cl)cc2)c(CCCC(=O)O)o1` the melting point was 211 to 212 °C. Work on `CC(C)c1cccc(S(=O)(=O)n2c(Cc3ccc(C(=O)O)cc3)cc3cc(C(F)(F)F)ccc32)c1` yielded a melting point of 175 °C. For `NC(=O)CNC(=O)c1cccc(-c2cccc3c(F)c(Cc4cccc(C(F)(F)F)c4)sc23)c1`, the melting point was 127 to 128 °C. For `N#CC(=NO)c1c(Cl)cccc1Cl`, the melting point was 94 to 96 °C. For `CC(=O)Nc1ccccc1Oc1ccc(C#N)c(C#N)c1`, the melting point was 152 to 154 °C. `COc1cc2c(c(OC)c1OC)C1=C(CCC1)C(=O)CC2` gave a melting point of 101 to 102 °C. In the case of `O=c1cc(C(F)(F)F)[nH]n1-c1ccccc1`, the melting point is reported as 193 °C. In the case of `CC(=O)Oc1ccc(-c2ccc(C=C(Br)Br)s2)cc1`, the melting point is reported as 115 to 116 °C. Molecule `Cc1c(NCCNCC(O)COc2ccccc2)c(=O)n(C)c(=O)n1C` (stereo not drawn) has a melting point of 92 to 94 °C. In the case of `O=C(NS(=O)(=O)c1ccc(Cl)cc1)N1CC(c2ccccc2)C(c2ccc(Cl)cc2)=N1` (stereo not drawn), the melting point is reported as 211 to 214 °C. `CCCCN1C(=O)CC(=O)NC1=O` showed a melting point of 107 to 108 °C. `O=c1nc(-c2cccc(CC(O)=S)n2)sc2ccccc12` showed a melting point of 258 to 260 °C. `Cc1nc2c(N)nc3cnccc3c2n1CC(C)C` showed a melting point of 322 to 324 °C. In the case of `COC(=O)CC(NC1CC1)=C(C(=O)OC)C(=O)C(F)(F)F`, the melting point is reported as 51.5 to 52.5 °C. In the case of `CCN(CC)CCCNC(=O)Cn1ncc(-c2ccc(C#N)cc2)c1-c1ccccc1`, the melting point is reported as 100 to 101 °C. For `Cc1nc2c(N)nc3ccncc3c2n1C`, the melting point was 330 to 335 °C. Work on `COc1ccc(Cl)cc1C1(O)C(=O)Nc2cc(C(F)(F)F)ccc21` (stereo not drawn) yielded a melting point of 207 to 210 °C. Work on `CCCCCCCCCCCCCCCCCCNc1nc(NCC(O)C2CC(C)(C)NC(C)(C)C2)nc(NCC(O)C2CC(C)(C)NC(C)(C)C2)n1` (stereo not drawn) yielded a melting point of 104 to 107 °C. In the case of `Cc1ccn2c(=O)c(CCN3CCN(c4ccc(Cl)cc4)CC3)c(C)nc2c1`, the melting point is reported as 156 to 157 °C. Molecule `Nc1nc(O)c2c(n1)NCC(CCCCCC(=O)N[C@@H](CCC(=O)O)C(=O)O)C2` (stereo partly drawn) has a melting point of 144 °C. `Cc1nc(-c2ccc(C(F)(F)F)cc2)sc1CSc1ccc(OCC(=O)O)c2c1CCCC2` showed a melting point of 166 to 167 °C. For `Cc1nc(-c2ccc(NS(=O)(=O)c3sc4ccc(F)cc4c3C)c(S(C)(=O)=O)c2)cs1`, the melting point was 217 to 220 °C. Work on `COC(=O)c1scc(-c2ccccc2)c1-c1ccc(S(C)=O)c(F)c1` (stereo not drawn) yielded a melting point of 164 °C. `N=C(N)NCCOc1ccc2c(c1)CC(CCC(=O)O)C(=O)N2` (stereo not drawn) showed a melting point of 119 to 122 °C. In the case of `CCOc1ccccc1COc1ccc2c(c1)C=C(C(=O)Nc1ccc(CN(C)C3CCOCC3)cc1)CCS2(=O)=O`, the melting point is reported as 211 to 214 °C. In the case of `O=C(O)c1ccc(-n2nnnc2S)cc1`, the melting point is reported as 198 °C. Work on `COc1ccc(C2=C(C#N)C(c3ccccc3OC)c3c[nH]nc3N2)cc1` (stereo not drawn) yielded a melting point of 149 °C. With `O=C(O)C(Cc1ccccc1)C(O)CCCCCOCc1ccccc1` (stereo not drawn) the melting point was 66 to 67 °C. In the case of `COc1ccc(CC(=O)Nc2cc(-c3c(-c4cccc(C)c4)nc4cccnn34)ccn2)cc1`, the melting point is reported as 213 to 214 °C. Molecule `COCc1cc(-c2csc(N)n2)on1` has a melting point of 137 to 138 °C. For `Nc1c(Cl)cc2nc(O)c(O)nc2c1[N+](=O)[O-]`, the melting point was > 300 °C. `COc1ccc2cccc(/C(CNC(C)=O)=N/O)c2c1` showed a melting point of 136 to 138 °C. `Cc1ccc2c3c(c(=O)oc2c1)CN(Cc1ccc(Cl)cc1)CC3` showed a melting point of 147 to 149 °C. With `Cn1cc(C2=C(c3c4n(c5ccccc35)CCN(C(=S)n3ccnc3)C4)C(=O)NC2=O)c2ccccc21` the melting point was 244 to 247 °C. With `CNc1cc([N+](=O)[O-])cc([N+](=O)[O-])c1` the melting point was 153 to 154 °C.
